Legend:
[1] = test system: rats; assay: Water-immersion restraint model of stress-induced gastric ulcer, diets (Example 3); type: in vivo, rat; settings: 3-week feeding, 18 h starvation, water immersion 6 hours at 22 to 25 C
Protocol: Rats were fed with the low lysine diet and the lysine-added diet supplemented for lysine deficiency (see Table 1) for 3 weeks. After starvation for 18 hours, the rats were placed in a stress gage (Natsume Seisakusho; KN-468) to immerse the rats in water (temperature of 22 to 25° C.) so as to soak their breast for 6 hours. Thereafter, a stomach was resected, to calculate the area with gastric bleeding, to examine the degree of gastric bleeding with the NHI image software. […] A correlation between gastric bleeding and the incidence of gastric ulcer is observed in this model. Therefore, it can be concluded that adding lysine to diet can prevent stress-induced gastric ulcer occurring on the low lysine diet.

[2] = test system: Wistar rats; assay: Elevated T-maze test after water-immersion stress, oral aqueous solutions (Example 6); type: in vivo, rat
Protocol: Seven-week Wistar rats (male, Nippon Charles-River) were used. For 7 days, the normal diet (CRF-1; Oriental Yeast) was fed ad libitum to the rats, for preliminary feeding. For the stress experiment, the rats were divided into the following three groups for feeding for another 3 days under starvation conditions: 1) a group (N=14) fed with an aqueous glutamine solution (120 mg/mL); 2) a group (N=14) given with an aqueous lysine solution (120 mg/mL); and 3) a group (N=14) given with an aqueous mixture solution of lysine glutamate salt (120 mg/mL) and arginine (120 mg/mL). The aqueous solutions were given to the individual groups in such a manner that dosing of 5 mL of each solution was enforced with an oral probe, once daily at 9:00 in the morning. During the term, water was fed ad libitum. On day 4, the rats were placed in a stress gage (Natsume Seisakusho; KN-468) to immerse the rats in water (temperature of 22 to 25° C.) so as to soak their breast for 4 hours for stress loading. Thereafter, elevated T-maze (see Example 1) test was done, for counting the time duration for searching action.

[3] = test system: mojyako (young yellow tail); assay: Feeding test under stress from feeding at high density in a water tank (Example 7); type: in vivo; settings: for Total feed intake: 24 feeding days; for Daily feeding ratio (%) / Daily increment (%) / Feed efficiency (%) / Survival rate (%): 28 day test; for Survival rate (%): 40 fish per 800-L tank; for feed intake compared with the remaining experimental lots (involving higher body weight increment): over the 3 week to 4 week
Protocol: Test feeds were prepared by adding lysine hydrochloride salt at the ratio shown in Table 3 below to a commercially available mashed feed for mojyako. The lysine content in the dry feed is thereby at 4.8%, which is far above the dietetic requirement (1.78%). For comparison, further, a feed was prepared by adding arginine hydrochloride salt at the same level instead of lysine hydrochloride salt, for use at the test.
As test fish, each group of 40 mojyako fishes of mean fish body weight of about 35 g were placed in one 800-L water tank, to which the feeds were fed two times daily at 8:00 in the morning and 16:00 in the afternoon to satiation, for a total of 4 weeks. During the term, their body weights were measured weekly. Herein, feeding was not done at 16:00 in the afternoon on the day before the day for body weight measurement.

[4] = test system: Broiler (species: Arbor Acres); assay: Broiler feeding at normal and high density under very hot conditions (Example 8); type: in vivo; settings: loading of lysine alone, ratio of arginine/lysine in the feed lowered
Description: Broiler (species: Arbor Acres) was fed under very hot conditions.
The feeding density was 8 chickens/1 m^2 (normal density) and 12 chickens/1 m^2 (high density) in two lots; the feeds were the following three groups: Feed 1=normal feed; Feed 2=normal feed+lysine (the lysine content 2-fold that in Feed 1); or Feed 3=normal feed+lysine+arginine (the lysine content and the arginine content were individually 2-fold those in Feed 1). A total of 6 experimental examples were set as combinations of the feeding densities and the feeds. The test was started on age 21 days (the mean body weight then was 722 g). The feeding results (body weight increment, feed requirement) on age 48 days were compared thereto. On the age 48 days, the chickens were sacrificed to death, for the evaluation of their meat quality (fat ratio in abdominal cavity). The feed requirement was expressed by the feed amount required for the increment of 1 g/body weight, as calculated by dividing the total feed intake by the body weight increment.

[5] = test system: Wistar rats; assay: Stress-induced gastric ulcer experiment, oral aqueous solutions (Example 5); type: in vivo, rat; settings: 5 mL orally once daily for 3 days, water immersion 5 hours on day 4; compared with control group fed pure water
Protocol: To assess the effects of lysine administration on stress-induced gastric ulcers, 7-week Wistar rats (male; Nippon Charles-River) were used. For 7 days, normal diet (CRF-1; Oriental Yeast) was fed ad libitum to the rats, for preliminary feeding. For the stress experiment, rats were divided into the following three groups for feeding for another 3 days under starvation conditions: I) a control group (N=8) fed with pure water; 2) a group (N=8) given with an aqueous lysine solution (40 mg/mL); and 3) a group (N=4) given with an aqueous mixture solution of lysine glutamate salt (40 mg/mL) and arginine (40 mg/mL). The aqueous solutions were given to the individual groups in such a manner that dosing of 5 mL of each solution was enforced with an oral probe, once daily at 9:00 in the morning.
During the term, water was fed ad libitum. On day 4, the rats were placed in a stress gage (Natsume Seisakusho; KN-468) as in Example 3, to immerse the rats in water (temperature of 22 to 25° C.) so as to soak their breast for 5 hours to induce stress-induced gastric ulcer.

[6] = test system: Wistar rats; assay: Model with stress-induced appetite loss, foot shock stress (Example 4); type: in vivo, rat; settings: lysine-added diet (27 g/kg) vs control diet (13.4 g/kg), fed from 4 days before foot shock stress
Protocol: Wistar rats (male; age 13 weeks; about 400 g or so; N=16) were used at this experiment. Four days before the start of the experiment and throughout the stress experiment, the rats were fed with normal diet (control diet; lysine at 13.4 g/kg) and the lysine-added diet (27 g/kg). Under conditions of water ad libitum, feeding was done from 9:00 to 11:00. The rats were subjected to foot shock stress (1 mA/3 minutes; once per one hour at 19:00 to 7:00 on the next day) on day 4 of feeding; foot shock stress (1 mA/3 minutes, once per 2 hours at 19:00 to 7:00 on the next day) on day 5; and foot shock stress (1 mA/3 minutes, once at 7:00) on day 6. The changes in the total feed intake each day and the change of body weight over days were measured.

SMILES | Total feed intake [3] [g] | Daily feeding ratio (%) [3] [%] | Daily increment (%) [3] [%] | Feed efficiency (%) [3] [%] | Survival rate (%) [3] [%] | Mean body weight at start [3] | Weekly feed intake (g) for 0-1 week [3] [g] | Weekly feed intake (g) for 1-2 week [3] [g] | Weekly feed intake (g) for 2-3 week [3] [g] | Weekly feed intake (g) for 3-4 week [3] [g] | Mean body weight on 1 week [3] | Mean body weight on 2 week [3] | Mean body weight on 3 week [3] | Mean body weight on 4 week (final) [3] | feed intake compared with the remaining experimental lots (involving higher body weight increment) [3] | further results
NCCCC[C@H](N)C(=O)O [Lysine, L-Lysine] | 3452 | 4.29 | 3.68 | 85.8 | 100 | 34.8 | 18.4 | 38.3 | 59.9 | 86.3 | 46.4 | 63.7 | 84.2 | 108.9 | larger | degree in areas of gastric bleeding (ratio of the area of gastric bleeding to the total gastric area) [1]: can prevent; time duration for searching action ([2]; 5 mL orally once daily for 3 days, water immersion 4 hours on day 4, compared with the glutamine group): significantly prolonged; body weight increment compared with the control ([3]; at the termination of the test): 17%; growth inhibition [4]: no growth inhibition is observed; areas of gastric bleeding [5]: significant reduction; effect on total feed intake and body weight change under stress [6]: preventive effect
N=C(N)NCCC[C@H](N)C(=O)O [Arginine, L-Arginine, reference compound] | 3072 | 4.09 | 3.36 | 82.0 | 100 | 35.5 | 18.7 | 36.7 | 54.5 | 76.8 | 45.7 | 61.5 | 77.6 | 98.5 | could not be obtained | –
NC(=O)CC[C@H](N)C(=O)O [glutamine, L-Glutamine, reference compound] | – | – | – | – | – | – | – | – | – | – | – | – | – | – | – | time duration for searching action, glutamine group vs physiological saline group ([2]; evaluation of the effect of glutamine): No significant difference
